Experimental data as given in patent US7049311B1, “Pyrrolbenzodiazepines” (Spirogen Limited, priority 1998, dated 2006).
Where “and” joins values, the source holds several entries; their conditions need not be identical. Equal entries are not always repeated.

How the values were obtained:
[1] = tested on: MDA-MB-435 xenografts (human mammary tumour); test: NCI human xenograft study; type: in vivo, mice
Procedure: (§1) These are carried out on nucle athymic mice with a disabled immune system. The human tumour tissue to be tested is implanted in their flanks, and whilst the control mouse receives no treatment, the others are subjected to varying doses of the test compound, which is administered intraperitoneally. The results are expressed as the toxicity of the compound, the amount of tumour growth, and the inhibition of growth.
(§2) Athymic nude mice bearing MDA-MB-435 xenografts (human mammary tumour), Ovcar-3 (human ovarian tumour), UACC-62 (human melanoma) or OVCAR-5 (human ovarian tumour) were treated at doses of 0.67 (high), 0.45 (middle) and 0.3 (low) mg/kg/injection given once every 4th day for a total of 3 doses (6 mice per dose level with 20 controls).
(§3) UP2001 (80) was evaluated by measuring the toxicity of the drug and its ability to retard tumour growth.
(§4) Toxicity represents the number of mice which died as a result of treatment. % T/C represents the width of the tumours in the “test” mice (T) (as measured with calipers) compared to control untreated mice (C) and presented as a percentage. % Growth Delay represents the increase in the amount of time taken for the tumors to reach an arbitrary size of 250 mg.

[2] = tested on: OVCAR-5 (human ovarian tumour); test: NCI human xenograft study; type: in vivo, mice
Procedure: as §1, §2, §3, §4

[3] = tested on: Ovcar-3 (human ovarian tumour); test: NCI human xenograft study; type: in vivo, mice
Procedure: as §1, §2, §3, §4

[4] = tested on: UACC-62 (human melanoma); test: NCI human xenograft study; type: in vivo, mice
Procedure: as §1, §2, §3, §4

[5] = tested on: human CNS tumour SF-295; test: NCI human xenograft study; type: in vivo, mice; settings: 5 doses
Procedure: as §1
UP2001 (80) was also evaluated against the human CNS tumour SF-295. Athymic nude mice bearing SF-295 were treated at doses of 0.40, 0.27 and 0.18 mg/Kg by injection given intravenously once daily for a total of 5 doses.

[6] = tested on: human ovarian carcinoma cell line A2780; test: Cytotoxicity in A2780 (Example 9); type: cell-based
Procedure: Relative to the parental line, the A2780cisR subline is known to have elevated GSH levels, an increased level of repair of DNA-cisplatin adducts, and a decreased ability to uptake cisplatin (M. Smellie, et al., Br. J. Cancer, 1994, 70, 48).
The results, which were obtained by incubating the cells with the compounds for 96 hours at 37° C., and assessing the cell number using Sulforhodamine B, are presented in the table below: […]

[7] = tested on: CH1cisR; test: Ovarian carcinoma cytotoxicity assay; type: cell-based; settings: Homo sapiens, CH1cisR, 96 h, read-out: IC50 CH1cisR
Outline: (§5)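 Cells attached overnight, then read 96 hours later by sulphorhodamine B staining of TCA-fixed cells, with absorbance at 540 nm. IC50 taken from concentration versus % absorbance relative to untreated wells; cisR lines are cisplatin-resistant.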

[8] = tested on: CH1; test: Ovarian carcinoma cytotoxicity assay; type: cell-based; settings: Homo sapiens, CH1, 96 h, read-out: IC50 CH1
Outline: as §5

[9] = tested on: SKOV-3; test: Ovarian carcinoma cytotoxicity assay; type: cell-based; settings: Homo sapiens, SK-OV-3, 96 h, read-out: IC50 Skov3
Outline: as §5

[10] = MDA-MB-435 xenografts, dose not given
[11] = 0.3 mg/kg/injection once every 4th day, 3 doses
[12] = 0.3 mg/kg/injection once every 4th day, 3 doses, mice which died as a result of treatment
[13] = 0.3 mg/kg/injection, time for tumours to reach 250 mg
[14] = 0.45 mg/kg/injection once every 4th day, 3 doses
[15] = 0.45 mg/kg/injection once every 4th day, 3 doses, mice which died as a result of treatment
[16] = 0.45 mg/kg/injection, time for tumours to reach 250 mg
[17] = 0.67 mg/kg/injection once every 4th day, 3 doses
[18] = 0.67 mg/kg/injection once every 4th day, 3 doses, mice which died as a result of treatment
[19] = 0.67 mg/kg/injection, time for tumours to reach 250 mg

C=C1C[C@H]2C=Nc3cc(OCCCOc4cc5c(cc4OC)C(=O)N4CC(=C)C[C@H]4C=N5)c(OC)cc3C(=O)N2C1 [UP2001 (80)]
% T/C Low ([1]; MDA-MB-435, 0.3 mg/kg/injection once every 4th day, 3 doses): 3%
Toxicity Low ([1]; MDA-MB-435, 0.3 mg/kg/injection once every 4th day, 3 doses, mice which died as a result of treatment): 2/6
% Growth Delay Low ([1]; MDA-MB-435, 0.3 mg/kg/injection, time for tumours to reach 250 mg): 41%
% T/C Mid ([1]; MDA-MB-435, 0.45 mg/kg/injection once every 4th day, 3 doses): 3%
Toxicity Mid ([1]; MDA-MB-435, 0.45 mg/kg/injection once every 4th day, 3 doses, mice which died as a result of treatment): 1/6
% Growth Delay Mid ([1]; MDA-MB-435, 0.45 mg/kg/injection, time for tumours to reach 250 mg): 41%
% T/C High ([1]; MDA-MB-435, 0.67 mg/kg/injection once every 4th day, 3 doses): toxic
Toxicity High ([1]; MDA-MB-435, 0.67 mg/kg/injection once every 4th day, 3 doses, mice which died as a result of treatment): 3/6
% Growth Delay High ([1]; MDA-MB-435, 0.67 mg/kg/injection, time for tumours to reach 250 mg): 41%
delay in the time taken to reach tumour mass of 250 mg [1, 10]: 41%
tumour growth in treated mice as % of the tumour growth in the control population [1, 10]: 3%
% T/C Low ([2]; OVCAR-5, 0.3 mg/kg/injection once every 4th day, 3 doses): 38%
Toxicity Low ([2]; OVCAR-5, 0.3 mg/kg/injection once every 4th day, 3 doses, mice which died as a result of treatment): 0/6
% Growth Delay Low ([2]; OVCAR-5, 0.3 mg/kg/injection, time for tumours to reach 250 mg): 32%
% T/C Mid ([2]; OVCAR-5, 0.45 mg/kg/injection once every 4th day, 3 doses): 45%
Toxicity Mid ([2]; OVCAR-5, 0.45 mg/kg/injection once every 4th day, 3 doses, mice which died as a result of treatment): 0/6
% Growth Delay Mid ([2]; OVCAR-5, 0.45 mg/kg/injection, time for tumours to reach 250 mg): 28%
% T/C High ([2]; OVCAR-5, 0.67 mg/kg/injection once every 4th day, 3 doses): 52%
Toxicity High ([2]; OVCAR-5, 0.67 mg/kg/injection once every 4th day, 3 doses, mice which died as a result of treatment): 0
% Growth Delay High ([2]; OVCAR-5, 0.67 mg/kg/injection, time for tumours to reach 250 mg): 16%
tumour size reduction ([2]; OVCAR-5 xenografts, dose not given): approximately 50%
% T/C Low [3, 11]: 46%
Toxicity Low [3, 12]: 0/6
% Growth Delay Low [3, 13]: 9%
% T/C Mid [3, 14]: 20%
Toxicity Mid [3, 15]: 0/6
% Growth Delay Mid [3, 16]: 73%
% T/C High [3, 17]: 7%
Toxicity High [3, 18]: 0/6
% Growth Delay High [3, 19]: 73%
% T/C Low [4, 11]: 67%
Toxicity Low [4, 12]: 0/6
% Growth Delay Low [4, 13]: 43%
% T/C Mid [4, 14]: 28%
Toxicity Mid [4, 15]: 0/6
% Growth Delay Mid [4, 16]: 43%
% T/C High [4, 17]: 22%
Toxicity High [4, 18]: 0/6
% Growth Delay High [4, 19]: 43%
% T/C Low ([5]; 0.18 mg/Kg intravenously once daily): 0%
Toxicity Low ([5]; 0.18 mg/Kg intravenously once daily, mice dying): two and 2/6
Tumour Free Low ([5]; 0.18 mg/Kg intravenously once daily, surviving mice tumour free on day 27): 3 out of 4 and 3/4
% T/C Med ([5]; 0.27 mg/Kg intravenously once daily): 0%
Toxicity Med ([5]; 0.27 mg/Kg intravenously once daily, mice dying): 1 and 1/6
Tumour Free Med ([5]; 0.27 mg/Kg intravenously once daily, surviving mice tumour free on day 27): all the surviving mice were tumour free and 5/5
% T/C High ([5]; 0.40 mg/Kg intravenously once daily): 0%
Toxicity High ([5]; 0.40 mg/Kg intravenously once daily, mice dying): 2 and 2/6
Tumour Free High ([5]; 0.40 mg/Kg intravenously once daily, surviving mice tumour free on day 27): all the surviving mice were tumour free and 4/4
fold increase in cytotoxicity compared to DSB-120 ([6]; A2780 cell line): 320 fold
IC50 ([6]; Homo sapiens, A2780, 96 h, read-out: IC50 A2780): 0.023 nM
IC50 [7]: 0.6 nM
IC50 [8]: 0.12 nM
IC50 [9]: 9.1 nM
